The record followed here is patent US20250171423A1, “PHARMACEUTICAL COMPOUNDS FOR THE TREATMENT OF COMPLEMENT MEDIATED DISORDERS” (Achillion Pharmaceuticals, Inc., priority 2020, published 2025).

pIC50: −log10 of the molar value.

The test deals with T1, Human complement C1s enzyme (Homo sapiens, UniProt P09871).
T1 construct: purified from human serum, Complement Technology, Inc; purchased Complement Technology, Inc; host or cells: human serum
T1 sequence (P09871 438-688 limits assumed): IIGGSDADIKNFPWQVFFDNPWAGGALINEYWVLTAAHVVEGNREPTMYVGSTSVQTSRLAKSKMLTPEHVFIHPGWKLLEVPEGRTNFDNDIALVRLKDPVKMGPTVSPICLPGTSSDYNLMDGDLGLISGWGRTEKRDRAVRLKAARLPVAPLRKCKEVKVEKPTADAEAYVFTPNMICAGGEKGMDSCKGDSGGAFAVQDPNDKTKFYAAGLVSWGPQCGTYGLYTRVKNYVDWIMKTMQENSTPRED
T1 sequence (P09871 16-437 partner limits assumed): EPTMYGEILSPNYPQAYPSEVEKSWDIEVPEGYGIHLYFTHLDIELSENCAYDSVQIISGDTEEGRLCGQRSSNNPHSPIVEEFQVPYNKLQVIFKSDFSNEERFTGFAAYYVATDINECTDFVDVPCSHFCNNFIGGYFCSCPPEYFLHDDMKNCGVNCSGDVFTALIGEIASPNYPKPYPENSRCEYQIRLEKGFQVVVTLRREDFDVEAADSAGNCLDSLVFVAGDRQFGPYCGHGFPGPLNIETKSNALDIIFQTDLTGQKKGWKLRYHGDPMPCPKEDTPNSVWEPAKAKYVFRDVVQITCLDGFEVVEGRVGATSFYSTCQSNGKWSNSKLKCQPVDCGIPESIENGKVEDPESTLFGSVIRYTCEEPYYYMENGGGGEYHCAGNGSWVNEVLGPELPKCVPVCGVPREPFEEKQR
As to the kind of experiment: Human C1s Enzyme Assay. Format: biochemical. Particulars: human C1s 1.16 nM, 5 min preincubation, substrate Z-L-Lys-SBzl 100 μM, A405; read-out: C1s Protease Activity. The method in brief: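 IC50 values were fitted by nonlinear regression to rates measured as A405 every 30 s for 30 min. The thioester substrate Z-L-Lys-SBzl and Ellman's reagent were each at 100 μM. Serum-derived C1s at 1.16 nM final had 5 min of room-temperature preincubation with compound (pH 7.5 Tris buffer, 1 M NaCl).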
On to `C[C@@]12C[C@@H]1N(C(=O)CNC(=O)CCCOc1ccccc1C(=O)O)[C@H](C(=O)NCc1cc(C(=N)N)cs1)C2` [Compound 186, 2-(4-((2-((1S,3S,5S)-3-(((4-carbamimidoylthiophen-2-yl)methyl)carbamoyl)-5-methyl-2-azabicyclo[3.1.0]hexan-2-yl)-2-oxoethyl)amino)-4-oxobutoxy)benzoic acid], for which the pIC50 is more than 7.00.

Turning to `N=C(N)c1csc(CNC(=O)[C@@H]2C[C@@H](OC(F)F)CN2C(=O)CNC(=O)CCCOc2ccccc2)c1` [Compound 29, (2S,4R)-N-((4-carbamimidoylthiophen-2-yl)methyl)-4-(difluoromethoxy)-1-((4-phenoxybutanoyl)glycyl)pyrrolidine-2-carboxamide], the pIC50 was more than 7.00.

On to `C[C@@]12C[C@@H]1N(C(=O)CNC(=O)c1ccc(Oc3ccccc3)cc1)[C@H](C(=O)NCc1ccc3onc(N)c3c1)C2` [Compound 67, (1S,3S,5S)-N-((3-aminobenzo[d]isoxazol-5-yl)methyl)-5-methyl-2-((4-phenoxy-benzoyl)glycyl)-2-azabicyclo[3.1.0]hexane-3-carboxamide], for which the pIC50 was less than 6.00.

On to `C[C@@]12C[C@@H]1N(C(=O)CNC(=O)c1ccc(Oc3ccccc3)cc1)[C@H](C(=O)NCc1cc(-c3ncc[nH]3)cs1)C2` [Compound 38, (1S,3S,5S)-N-((4-(1H-imidazol-2-yl)thiophen-2-yl)methyl)-5-methyl-2-((4-phenoxybenzoyl)glycyl)-2-azabicyclo[3.1.0]hexane-3-carboxamide], for which the pIC50 is more than 7.00.

With `C[C@@]12C[C@@H]1N(C(=O)CNC(=O)c1ccc(Oc3ccccc3)cc1)[C@H](C(=O)NCc1cc(/C(N)=N/NS(=O)(=O)c3ccccc3)cs1)C2` [Compound 139, (1S,3S,5S)-N-((4-(imino(2-(phenylsulfonyl)hydrazineyl)methyl)thiophen-2-yl)methyl)-5-methyl-2-((4-phenoxybenzoyl)glycyl)-2-azabicyclo[3.1.0]hexane-3-carboxamide], the pIC50 was less than 6.00.

Regarding `COC[C@@]12C[C@@H]1N(C(=O)CNC(=O)CCCOc1ccccc1)[C@H](C(=O)NCc1cc(C(=N)N)cs1)C2` [Compound 63, (1S,3S,5R)-N-((4-carbamimidoylthiophen-2-yl)methyl)-5-(methoxymethyl)-2-((4-phenoxybutanoyl)glycyl)-2-azabicyclo[3.1.0]hexane-3-carboxamide], the pIC50 is more than 7.00.

On to `N=C(N)c1csc([C@@H](NC(=O)[C@@H]2C[C@@H](OC(F)F)CN2C(=O)CNC(=O)c2ccc(Oc3ccccc3)cc2)C(N)=O)c1` (relative stereo) [Compound 214, (2S,4R)-N-((S*)-2-amino-1-(4-carbamimidoylthiophen-2-yl)-2-oxoethyl)-4-(difluoromethoxy)-1-((4-phenoxybenzoyl)glycyl)pyrrolidine-2-carboxamide], for which the pIC50 was less than 6.00.

With `C[C@@H](NC(=O)[C@@H]1C[C@]2(C)C[C@@H]2N1C(=O)CNC(=O)c1ccc(C(=O)c2ccccc2)cc1)c1cc(C(=N)N)cs1` [Compound 180, (1S,5S)-2-((4-benzoylbenzoyl)glycyl)-N-((R)-1-(4-carbamimidoylthiophen-2-yl)ethyl)-5-methyl-2-azabicyclo[3.1.0]hexane-3-carboxamide], the pIC50 is more than 7.00.

Turning to `C[C@@]12C[C@@H]1N(C(=O)CNC(=O)c1ccc(Oc3ccccc3)cc1)[C@H](C(=O)NCc1ncc(C(=N)N)s1)C2` [Compound 235, (1S,3S,5S)-N-((5-carbamimidoylthiazol-2-yl)methyl)-5-methyl-2-((4-phenoxybenzoyl)glycyl)-2-azabicyclo[3.1.0]hexane-3-carboxamide], the pIC50 was more than 7.00.

Take `CC1(c2ccc(OCCCC(=O)NCC(=O)N3[C@H]4C[C@@]4(C)C[C@H]3C(=O)NCc3cc(C(=N)N)cs3)cc2)COC1` [Compound 140, (1S,3S,5S)-N-((4-carbamimidoylthiophen-2-yl)methyl)-5-methyl-2-((4-(4-(3-methyloxetan-3-yl)phenoxy)butanoyl)glycyl)-2-azabicyclo[3.1.0]hexane-3-carboxamide]: the pIC50 was more than 7.00.

Regarding `N=C(N)c1ccc(CNC(=O)[C@@H]2CC3(CN2C(=O)CNC(=O)CCCOc2ccccc2)OCCO3)s1` [Compound 83, (S)-N-((5-carbamimidoylthiophen-2-yl)methyl)-7-((4-phenoxybutanoyl)glycyl)-1,4-dioxa-7-azaspiro[4.4]nonane-8-carboxamide], the pIC50 is more than 7.00.

Turning to `N=C(N)c1ccc(CNC(=O)[C@@H]2CC3(CN2C(=O)CNC(=O)c2ccc(Oc4ccccc4)cc2)OCCO3)cn1` [Compound 71, (S)-N-((6-carbamimidoylpyridin-3-yl)methyl)-7-((4-phenoxybenzoyl)glycyl)-1,4-dioxa-7-azaspiro[4.4]nonane-8-carboxamide], the pIC50 is more than 7.00.

Take `CC1(C)SCN(C(=O)CNC(=O)CCCOc2ccccc2)[C@@H]1C(=O)NCc1cc(C(=N)N)cs1` [Compound 124, (R)-N-((4-carbamimidoylthiophen-2-yl)methyl)-5,5-dimethyl-3-((4-phenoxybutanoyl)glycyl)thiazolidine-4-carboxamide]: the pIC50 is 6.00 to 7.00.

As to `C[C@@H](NC(=O)[C@@H]1C[C@@H](OC(F)F)CN1C(=O)CNC(=O)c1ccc(Oc2ccccc2)cc1)c1cc(C(=N)N)cs1` [Compound 172, (2S,4R)-N-((R)-1-(4-carbamimidoylthiophen-2-yl)ethyl)-4-(difluoromethoxy)-1-((4-phenoxybenzoyl)glycyl)pyrrolidine-2-carboxamide], the pIC50 is more than 7.00.

As for `N=C(N)c1csc(CNC(=O)[C@@H]2C[C@]3(CN4CCOCC4)C[C@@H]3N2C(=O)CNC(=O)CCCOc2ccccc2)c1` [Compound 135, (1S,3S,5S)-N-((4-carbamimidoylthiophen-2-yl)methyl)-5-(morpholinomethyl)-2-((4-phenoxybutanoyl)glycyl)-2-azabicyclo[3.1.0]hexane-3-carboxamide], the pIC50 is more than 7.00.

Consider `C[C@@]12C[C@@H]1N(C(=O)CNC(=O)c1ccc(Oc3ccccc3)cc1)[C@H](C(=O)NCc1cc(S(C)(=N)=O)cs1)C2` (stereo partly drawn) [Compound 23, (1S,3S,5S)-5-methyl-N-((4-(S-methylsulfonimidoyl)thiophen-2-yl)methyl)-2-((4-phenoxybenzoyl)glycyl)-2-azabicyclo[3.1.0]hexane-3-carboxamide], for which the pIC50 was less than 6.00.

In the case of `C[C@@H](NC(=O)[C@@H]1C[C@H](C2CCCCC2)CN1C(=O)CNC(=O)CCCOc1ccccc1)c1cc(C(=N)N)cs1` [Compound 243, (2S,4R)-N-((R)-1-(4-carbamimidoylthiophen-2-yl)ethyl)-4-cyclohexyl-1-((4-phenoxybutanoyl)glycyl)pyrrolidine-2-carboxamide], the pIC50 is more than 7.00.

Take `COC(=N)c1csc(CNC(=O)[C@@H]2C[C@]3(C)C[C@@H]3N2C(=O)CNC(=O)c2ccc(Oc3ccccc3)cc2)c1` [Compound 32, methyl 5-(((1S,3S,5S)-5-methyl-2-((4-phenoxybenzoyl)glycyl)-2-azabicyclo[3.1.0]-hexane-3-carboxamido)methyl)thiophene-3-carbimidate]: the pIC50 was 6.00 to 7.00.

Take `CO/N=C(\N)c1csc(CNC(=O)[C@@H]2C[C@]3(C)C[C@@H]3N2C(=O)CNC(=O)c2ccc(Oc3ccccc3)cc2)c1` [Compound 6, (1S,3S,5S)-N-((4-((Z)-N′-methoxycarbamimidoyl)thiophen-2-yl)methyl)-5-methyl-2-((4-phenoxybenzoyl)glycyl)-2-azabicyclo[3.1.0]hexane-3-carboxamide]: the pIC50 was less than 6.00.
